Key:
Type in all cases: functional, cell-based
[1] = molecular target: T1, Muscarinic acetylcholine receptor M4 (Homo sapiens, UniProt P08173); assay: Modulatory activity at M4 receptor (unknown origin) expressed in CHO-K1 cells assessed as cAMP production by TR-FRET analysis
T1 sequence (P08173 whole entry): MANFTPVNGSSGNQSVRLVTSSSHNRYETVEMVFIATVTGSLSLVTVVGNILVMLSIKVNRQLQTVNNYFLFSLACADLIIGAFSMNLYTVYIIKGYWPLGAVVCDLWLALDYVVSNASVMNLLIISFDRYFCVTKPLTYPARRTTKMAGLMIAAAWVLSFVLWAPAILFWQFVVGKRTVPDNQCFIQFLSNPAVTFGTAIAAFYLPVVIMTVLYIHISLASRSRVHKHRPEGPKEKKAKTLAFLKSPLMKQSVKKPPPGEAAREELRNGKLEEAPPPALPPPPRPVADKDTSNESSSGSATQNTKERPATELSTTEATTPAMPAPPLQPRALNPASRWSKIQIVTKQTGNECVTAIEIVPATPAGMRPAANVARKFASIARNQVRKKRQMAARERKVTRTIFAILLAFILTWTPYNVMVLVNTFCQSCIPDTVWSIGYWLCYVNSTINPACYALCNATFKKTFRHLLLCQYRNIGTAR

[2] = molecular target: T2, Muscarinic acetylcholine receptor M2 (Homo sapiens, UniProt P08172); assay: Modulatory activity at M2 receptor (unknown origin) expressed in CHO-K1 cells assessed as cAMP production by TR-FRET analysis
T2 sequence (P08172 whole entry): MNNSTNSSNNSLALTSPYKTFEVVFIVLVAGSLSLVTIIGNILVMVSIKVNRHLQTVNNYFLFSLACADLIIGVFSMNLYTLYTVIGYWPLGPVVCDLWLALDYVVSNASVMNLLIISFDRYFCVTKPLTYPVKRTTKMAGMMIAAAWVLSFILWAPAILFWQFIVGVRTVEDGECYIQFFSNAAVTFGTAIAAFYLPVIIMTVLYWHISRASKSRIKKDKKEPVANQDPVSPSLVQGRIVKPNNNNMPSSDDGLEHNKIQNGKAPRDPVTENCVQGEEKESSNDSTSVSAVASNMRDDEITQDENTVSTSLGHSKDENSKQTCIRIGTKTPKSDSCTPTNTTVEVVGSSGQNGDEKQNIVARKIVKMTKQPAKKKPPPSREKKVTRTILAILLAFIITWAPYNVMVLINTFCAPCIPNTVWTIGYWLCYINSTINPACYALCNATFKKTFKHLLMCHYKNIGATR

[3] = molecular target: Muscarinic acetylcholine receptor M3 (Homo sapiens, UniProt P20309); assay: Modulatory activity at M3 receptor (unknown origin) expressed in CHO-K1 cells assessed as intracellular calcium flux incubated for 30 mins by Fluo-8 dye based FLIPR analysis
Muscarinic acetylcholine receptor M3, sequence (P20309 whole entry): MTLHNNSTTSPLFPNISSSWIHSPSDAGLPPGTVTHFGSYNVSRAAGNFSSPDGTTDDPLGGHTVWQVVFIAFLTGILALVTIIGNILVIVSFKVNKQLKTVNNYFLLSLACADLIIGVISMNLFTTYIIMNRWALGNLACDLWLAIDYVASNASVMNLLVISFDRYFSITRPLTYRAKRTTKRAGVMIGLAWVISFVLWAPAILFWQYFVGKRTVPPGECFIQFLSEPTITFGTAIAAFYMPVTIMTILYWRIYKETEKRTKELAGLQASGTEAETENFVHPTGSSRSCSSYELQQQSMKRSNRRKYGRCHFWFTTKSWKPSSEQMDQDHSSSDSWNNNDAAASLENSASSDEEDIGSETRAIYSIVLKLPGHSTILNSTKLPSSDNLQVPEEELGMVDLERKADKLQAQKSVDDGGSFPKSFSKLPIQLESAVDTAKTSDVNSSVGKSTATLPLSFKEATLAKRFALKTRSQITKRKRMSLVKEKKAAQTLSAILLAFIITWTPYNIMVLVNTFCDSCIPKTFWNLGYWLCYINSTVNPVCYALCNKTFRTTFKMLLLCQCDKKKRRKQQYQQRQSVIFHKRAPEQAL

[4] = molecular target: T3, Muscarinic acetylcholine receptor M5 (Homo sapiens, UniProt P08912); assay: Modulatory activity at M5 receptor (unknown origin) expressed in CHO-K1 cells assessed as intracellular calcium flux incubated for 30 mins by Fluo-8 dye based FLIPR analysis
T3 sequence (P08912 whole entry): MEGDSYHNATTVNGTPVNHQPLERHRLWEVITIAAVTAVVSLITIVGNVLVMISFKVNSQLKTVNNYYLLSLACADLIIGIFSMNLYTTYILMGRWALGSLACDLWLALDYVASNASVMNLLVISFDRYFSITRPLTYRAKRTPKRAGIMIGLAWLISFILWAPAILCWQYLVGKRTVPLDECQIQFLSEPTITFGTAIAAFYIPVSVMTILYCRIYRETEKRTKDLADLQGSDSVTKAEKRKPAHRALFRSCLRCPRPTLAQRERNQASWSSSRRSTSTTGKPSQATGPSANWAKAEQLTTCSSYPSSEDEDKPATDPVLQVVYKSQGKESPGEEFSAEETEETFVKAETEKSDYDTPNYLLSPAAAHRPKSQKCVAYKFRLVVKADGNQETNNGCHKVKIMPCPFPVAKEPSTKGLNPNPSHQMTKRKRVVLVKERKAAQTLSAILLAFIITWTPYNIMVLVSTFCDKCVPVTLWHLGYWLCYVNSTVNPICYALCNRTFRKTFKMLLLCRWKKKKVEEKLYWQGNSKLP

[5] = molecular target: T4, Muscarinic acetylcholine receptor M1 (Homo sapiens, UniProt P11229); assay: Modulatory activity at M1 receptor (unknown origin) expressed in CHO-K1 cells assessed as intracellular calcium flux incubated for 30 mins by Fluo-8 dye based FLIPR analysis
T4 sequence (P11229 whole entry): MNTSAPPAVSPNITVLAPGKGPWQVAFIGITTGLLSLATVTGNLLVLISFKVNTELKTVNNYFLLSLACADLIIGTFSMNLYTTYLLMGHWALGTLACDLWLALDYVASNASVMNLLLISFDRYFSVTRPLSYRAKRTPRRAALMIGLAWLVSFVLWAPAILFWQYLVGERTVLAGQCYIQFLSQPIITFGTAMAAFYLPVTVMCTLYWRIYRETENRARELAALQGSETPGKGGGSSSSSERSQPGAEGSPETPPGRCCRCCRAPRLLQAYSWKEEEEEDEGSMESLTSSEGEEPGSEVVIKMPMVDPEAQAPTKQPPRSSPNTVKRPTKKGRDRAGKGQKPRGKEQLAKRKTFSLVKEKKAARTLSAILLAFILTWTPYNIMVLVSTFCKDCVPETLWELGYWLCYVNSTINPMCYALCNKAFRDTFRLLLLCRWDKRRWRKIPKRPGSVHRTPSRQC

| EC50 [1] [µM] | EC50 [2] [µM] | EC50 [3] [µM] | EC50 [4] [µM] | EC50 [5] [µM] | Compound |
| --- | --- | --- | --- | --- | --- |
| < 0.02 | > 10 | > 10 | 0.02 | > 10 | CCOC(=O)N1CC2(CC[C@@H](N3CCN(c4cccnc4-c4ccc(F)nc4)CC3)C2)C1 |
| < 0.02 | > 10 | > 10 | > 10 | > 10 | CCOC(=O)N1CC2(CC[C@@H](N3CCN(c4cc(F)cnc4-c4ccc(=O)n(C)c4)CC3)C2)C1 |
| < 0.02 |  | > 10 | > 10 | > 10 | CCOC(=O)N1CC2(CC[C@@H](N3CCN(c4cc(F)cnc4-c4cccc(CO)c4)CC3)C2)C1 |
| < 0.02 | > 10 | > 10 | 0.02 | < 0.02 | CCOC(=O)N1CC2(CC[C@@H](N3CCN(c4cc(F)cnc4-c4ccc(=O)[nH]c4)CC3)C2)C1 |

Further lines, the compound ahead of its results:

| Compound | EC50 [1] [µM] | EC50 [2] [µM] | EC50 [3] [µM] | EC50 [4] [µM] | EC50 [5] [µM] |
| --- | --- | --- | --- | --- | --- |
| CCOC(=O)N1CC2(CC[C@@H](N3CCC(O)(c4cc(F)cnc4-c4cnccn4)CC3)C2)C1 | < 0.02 | > 10 |  |  |  |
| CCOC(=O)N1CC2(CC[C@@H](N3CCN(c4cc(F)cnc4-c4cncs4)CC3)C2)C1 | < 0.02 | > 10 | > 10 | > 10 | < 0.02 |
| CCOC(=O)N1CC2(CC[C@@H](N3CCN(c4cc(F)cnc4-c4cnn(C(F)F)c4)CC3)C2)C1 | < 0.02 | < 0.02 | > 10 | > 10 | > 10 |
| CCOC(=O)N1CC2(CC[C@@H](N3CCN(c4cc(F)cnc4-c4cncc(OC)c4)CC3)C2)C1 | < 0.02 | > 10 | > 10 | > 10 | < 0.02 |
| CCOC(=O)N1CC2(CC[C@H](N3CCC(O)(c4cc(F)cnc4-c4cnccn4)CC3)C2)C1 | 0.02 | > 10 |  |  |  |
| CCOC(=O)N1CC2(CC[C@@H](N3CCN(c4cc(F)cnc4-c4cscn4)CC3)C2)C1 | < 0.02 | 0.1 |  |  |  |
| CCOC(=O)N1CC2(CC[C@@H](N3CCN(c4cc(F)cnc4-c4cnn(C(C)C)c4)CC3)C2)C1 | < 0.02 | 0.1 | > 10 | > 10 | > 10 |

From ChEMBL document CHEMBL6127156, “Azaspirooctane-carboxylates as Novel Activators/Modulators of M4 for the Treatment of Alzheimer's Disease and Parkinson's Disease” (ACS Med Chem Lett, 2024)
